In patent publication US4032625A, “Bone-seeking technetium-99m complex” (priority 1975, dated 1977):
Where two headings read alike, the source gives them in different places.

Settings: 2 Hrs

## 99m technetium-tin-1-amino-ethane-1,1-diphosphonate complex [^99m Tc-Sn-AEDP]
0.01 mg/kg
  Ratio of 99mTc complex/85Sr: Ave Bone: 0.735
  Ratio of 99mTc complex/85Sr: Blood: 0.406
  Ratio of 99mTc complex/85Sr: Femur: 0.720
  Ratio of 99mTc complex/85Sr: Kidneys: 4.99
  Ratio of 99mTc complex/85Sr: Liver: 3.00
  Ratio of 99mTc complex/85Sr: Marrow: 1.27
  Ratio of 99mTc complex/85Sr: Muscle: 0.338
  Ratio of 99mTc complex/85Sr: Pelvis: 0.794
  Ratio of 99mTc complex/85Sr: Spine: 0.689
  Ratio of 99mTc complex/85Sr: Tibia: 0.710
  Tc/Sr (last line of distribution table): 0.736
0.01 mg/kg AEDP
  % Dose in Whole Organ: Blood: 1.18 % Dose
  % Dose in Whole Organ: Kidneys: 1.59 % Dose
  % Dose in Whole Organ: Liver: 1.69 % Dose
  % Dose in Whole Organ: Marrow: 0.657 % Dose
  % Dose in Whole Organ: Muscle: 0.988 % Dose
  % Dose in Whole Organ: W. Femur: 2.34 % Dose
  % Dose in Whole Organ: W. Tibia: 1.96 % Dose
  % Dose/1% Body weight: Blood: 0.168 % Dose/1% Body weight
  % Dose/1% Body weight: Bone Ave: 7.60 % Dose/1% Body weight
  % Dose/1% Body weight: Femur: 7.54 % Dose/1% Body weight
  % Dose/1% Body weight: Kidneys: 2.72 % Dose/1% Body weight
  % Dose/1% Body weight: Liver: 0.617 % Dose/1% Body weight
  % Dose/1% Body weight: Marrow: 0.300 % Dose/1% Body weight
  % Dose/1% Body weight: Muscle: 0.037 % Dose/1% Body weight
  % Dose/1% Body weight: Pelvis: 8.53 % Dose/1% Body weight
  % Dose/1% Body weight: Spine: 6.20 % Dose/1% Body weight
  % Dose/1% Body weight: Tibia: 8.13 % Dose/1% Body weight
  % Dose: Urine: 48.39 % Dose
0.05 mg/kg
  Ratio of 99mTc complex/85Sr: Ave Bone: 0.683
  Ratio of 99mTc complex/85Sr: Blood: 0.409
  Ratio of 99mTc complex/85Sr: Femur: 0.687
  Ratio of 99mTc complex/85Sr: Kidneys: 3.30
  Ratio of 99mTc complex/85Sr: Liver: 1.32
  Ratio of 99mTc complex/85Sr: Marrow: 1.18
  Ratio of 99mTc complex/85Sr: Muscle: 0.236
  Ratio of 99mTc complex/85Sr: Pelvis: 0.684
  Ratio of 99mTc complex/85Sr: Spine: 0.675
  Ratio of 99mTc complex/85Sr: Tibia: 0.681
  Tc/Sr (last line of distribution table): 0.680
0.05 mg/kg AEDP
  % Dose in Whole Organ: Blood: 1.01 % Dose
  % Dose in Whole Organ: Kidneys: 1.13 % Dose
  % Dose in Whole Organ: Liver: 0.806 % Dose
  % Dose in Whole Organ: Marrow: 0.549 % Dose
  % Dose in Whole Organ: Muscle: 1.20 % Dose
  % Dose in Whole Organ: W. Femur: 2.41 % Dose
  % Dose in Whole Organ: W. Tibia: 2.14 % Dose
  % Dose/1% Body weight: Blood: 0.144 % Dose/1% Body weight
  % Dose/1% Body weight: Bone Ave: 8.39 % Dose/1% Body weight
  % Dose/1% Body weight: Femur: 8.63 % Dose/1% Body weight
  % Dose/1% Body weight: Kidneys: 1.83 % Dose/1% Body weight
  % Dose/1% Body weight: Liver: 0.176 % Dose/1% Body weight
  % Dose/1% Body weight: Marrow: 0.250 % Dose/1% Body weight
  % Dose/1% Body weight: Muscle: 0.028 % Dose/1% Body weight
  % Dose/1% Body weight: Pelvis: 7.82 % Dose/1% Body weight
  % Dose/1% Body weight: Spine: 7.80 % Dose/1% Body weight
  % Dose/1% Body weight: Tibia: 9.30 % Dose/1% Body weight
  % Dose: Urine: 44.21 % Dose
0.1 mg/kg
  Ratio of 99mTc complex/85Sr: Ave Bone: 0.716
  Ratio of 99mTc complex/85Sr: Blood: 0.409
  Ratio of 99mTc complex/85Sr: Femur: 0.714
  Ratio of 99mTc complex/85Sr: Kidneys: 2.94
  Ratio of 99mTc complex/85Sr: Liver: 0.490
  Ratio of 99mTc complex/85Sr: Marrow: 0.621
  Ratio of 99mTc complex/85Sr: Muscle: 0.205
  Ratio of 99mTc complex/85Sr: Pelvis: 0.725
  Ratio of 99mTc complex/85Sr: Spine: 0.705
  Ratio of 99mTc complex/85Sr: Tibia: 0.721
  Tc/Sr (last line of distribution table): 0.717
0.1 mg/kg AEDP
  % Dose in Whole Organ: Blood: 0.96 % Dose
  % Dose in Whole Organ: Kidneys: 0.913 % Dose
  % Dose in Whole Organ: Liver: 0.309 % Dose
  % Dose in Whole Organ: Marrow: 0.211 % Dose
  % Dose in Whole Organ: Muscle: 1.46 % Dose
  % Dose in Whole Organ: W. Femur: 2.38 % Dose
  % Dose in Whole Organ: W. Tibia: 2.18 % Dose
  % Dose/1% Body weight: Blood: 0.137 % Dose/1% Body weight
  % Dose/1% Body weight: Bone Ave: 7.51 % Dose/1% Body weight
  % Dose/1% Body weight: Femur: 7.93 % Dose/1% Body weight
  % Dose/1% Body weight: Kidneys: 1.28 % Dose/1% Body weight
  % Dose/1% Body weight: Liver: 0.083 % Dose/1% Body weight
  % Dose/1% Body weight: Marrow: 0.096 % Dose/1% Body weight
  % Dose/1% Body weight: Muscle: 0.034 % Dose/1% Body weight
  % Dose/1% Body weight: Pelvis: 6.24 % Dose/1% Body weight
  % Dose/1% Body weight: Spine: 7.36 % Dose/1% Body weight
  % Dose/1% Body weight: Tibia: 8.50 % Dose/1% Body weight
  % Dose: Urine: 38.8 % Dose
0.5 mg/kg
  Ratio of 99mTc complex/85Sr: Ave Bone: 0.644
  Ratio of 99mTc complex/85Sr: Blood: 0.280
  Ratio of 99mTc complex/85Sr: Femur: 0.628
  Ratio of 99mTc complex/85Sr: Kidneys: 2.47
  Ratio of 99mTc complex/85Sr: Liver: 0.459
  Ratio of 99mTc complex/85Sr: Marrow: 0.500
  Ratio of 99mTc complex/85Sr: Muscle: 0.140
  Ratio of 99mTc complex/85Sr: Pelvis: 0.692
  Ratio of 99mTc complex/85Sr: Spine: 0.614
  Ratio of 99mTc complex/85Sr: Tibia: 0.632
  Tc/Sr (last line of distribution table): 0.645
0.5 mg/kg AEDP
  % Dose in Whole Organ: Blood: 1.38 % Dose
  % Dose in Whole Organ: Kidneys: 1.11 % Dose
  % Dose in Whole Organ: Liver: 0.216 % Dose
  % Dose in Whole Organ: Marrow: 0.23 % Dose
  % Dose in Whole Organ: Muscle: 0.883 % Dose
  % Dose in Whole Organ: W. Femur: 1.74 % Dose
  % Dose in Whole Organ: W. Tibia: 1.55 % Dose
  % Dose/1% Body weight: Blood: 0.197 % Dose/1% Body weight
  % Dose/1% Body weight: Bone Ave: 6.96 % Dose/1% Body weight
  % Dose/1% Body weight: Femur: 6.59 % Dose/1% Body weight
  % Dose/1% Body weight: Kidneys: 2.11 % Dose/1% Body weight
  % Dose/1% Body weight: Liver: 0.079 % Dose/1% Body weight
  % Dose/1% Body weight: Marrow: 0.104 % Dose/1% Body weight
  % Dose/1% Body weight: Muscle: 0.021 % Dose/1% Body weight
  % Dose/1% Body weight: Pelvis: 7.93 % Dose/1% Body weight
  % Dose/1% Body weight: Spine: 6.05 % Dose/1% Body weight
  % Dose/1% Body weight: Tibia: 7.27 % Dose/1% Body weight
  % Dose: Urine: 48.85 % Dose
